From patent US20140121182A1, “PROTEASOME INHIBITORS AND PROCESSES FOR THEIR PREPARATION, PURIFICATION AND USE” (Cephalon, Inc., priority 2011, published 2014) come the findings set out here.

The nature of data set [1]: Comparative bioavailability: pharmacokinetic parameters for Compound 1 in rat plasma and blood after single iv and oral doses of its esters. The data set is classed as in vivo, male Sprague Dawley rats. The settings on record: for AUC0-t / AUC0-∞ / CL / Vd / t½ / Cmax / Oral Bioavailability / Tmax: mean ± SEM. The protocol:
Three adult male Sprague Dawley rats are used in each treatment group. The rats are fasted overnight prior to oral dose administration. Intravenous (IV) administration is via the lateral tail vein and oral doses are administered by gavage. The compound is administered iv or orally in a vehicle of phosphate buffered saline.
For blood collection, each rat (unanesthetized) is placed in a clear Plexiglas® restraining tube, and blood samples (approximately 0.25 mL) are drawn from a lateral tail vein into heparinized collection tubes at predetermined sampling times (0.083, 0.25, 0.5, 1, 2, 4, and 6 hours post dose). No pre-dose samples are obtained. The exception to this procedure is the last sampling time in which the animals are sacrificed by decapitation and trunk blood is obtained rather than blood via a tail vein. The blood samples are placed on wet ice until centrifuged to separate plasma. The whole blood and the plasma fraction are transferred into clean dry tubes, frozen on dry ice and stored at approximately −20° C. pending analysis.
Blood or plasma is prepared for high performance liquid chromatography (HPLC)/mass spectrometric analysis according to standard protocol following protein precipitation with acetonitrile containing an internal standard. The blood or plasma samples are then analyzed for Compound 1 and alprenolol (internal standard) via HPLC coupled with tandem mass spectrometry.
The blood and plasma concentration data for all rats are entered into Excel spreadsheets in preparation for pharmacokinetic analysis. Pharmacokinetic parameters for Compound 1 are estimated for each rat by non-compartmental analysis (Gibaldi M, Perrier D. Pharmacokinetics, 2nd edition, Marcel Dekker, New York, Chapter 11, 1982) of the blood or plasma concentration versus time data using WinNonlin software (Professional Version 4.1a, Pharsight Corporation, Palo Alto, Calif., 2003).
The maximum blood or plasma concentration (Cmax) is the highest observed concentration after an oral dose; tmax is the corresponding time when Cmax is observed. The terminal rate constant for elimination from blood or plasma (β) is estimated by linear regression of the terminal portion of the semi-logarithmic plasma concentration versus time curve. The apparent terminal half-life (t1/2) is calculated as 0.693 divided by β. The area under the blood or plasma concentration versus time curve from time zero to the time of the last measurable concentration (AUC0-t) after a single dose is determined by the linear trapezoidal rule. The area from zero to infinity (AUC0-∞) is calculated as the sum of AUC0-t and the area extrapolated from the last measurable concentration to infinity (Clast/β). Concentrations pre dose are all assumed to be zero for the purpose of calculation of the AUC. Oral bioavailability is determined by dividing the dose normalized oral AUC0-∞ by the […] from iv dosing and multiplying by 100 to express the ratio as a percent.
The mean±SEM. pharmacokinetic parameters for Compound 1 in male Sprague Dawley rats administered as single iv and oral doses of the citric acid ester of Compound 1 (“Form 1” or “Form 2”) or the diethanolamine ester of Compound 1 (“DEA Adduct”; i.e., boronic ester of Formula X) are shown in Tables 5-10 and corresponding FIGS. 5-10.

The nature of data set [2]: Storage for approximately one year at ambient indoor temperature and humidity, HPLC purity. The data set is classed as physicochemical. The settings on record: in a vial at the rear of a fume hood. The protocol: A 100 mL three neck round bottom flask equipped with a stir bar, thermocouple and nitrogen inlet is charged with 6.0 g (16.6 mmol) of Compound 1 (98.5A % purity) and 60 mL of ethyl acetate then stirred for five minutes at room temperature to dissolve the solids. Diethanol amine (1.68 g, 16.0 mmol) is charged and solids begin to form when addition is only ⅔ complete. The white slurry is stirred at room temperature for two hours and then the solids are collected by vacuum filtration, washed with 50 mL of ethyl acetate and dried overnight in a vacuum oven at 40° C. A quantitative yield of the desired product is obtained as a crystalline solid with an HPLC purity of 99.7A %. After storing for approximately one (1) year at ambient indoor temperature and humidity (in a vial at the rear of a fume hood), the HPLC purity was 99.9A %. ^1H NMR (d6-DMSO, 400 MHz) δ 8.8 (t, 1H, J=5.88 Hz), 7.55 (s, 2H), 7.52 (s, 1H), 6.99 (d, 1H, J=8.36 Hz), 6.57 (s, b, 1H), 3.85 (dq, 1H, J=16.1, 5.92 Hz), 3.69 (m, 2H), 3.57 (m, 1H), 3.14 (m, 1H), 2.99 (m, 2H), 2.75 (m, 1H), 2.69 (m, 1H), 1.59 (m, 1H), 1.31 (m, 1H), 1.22 (m, 1H), 0.824 (d, 3H, J=6.64 Hz), 0.797 (D, 3 h, J=6.48 Hz)
A 15 mL one neck round bottom flask equipped with a stir bar and nitrogen inlet is charged with 0.5 g (1.39 mmol) of Compound 1 (98.5A % purity) and 5 mL of ethyl acetate then stirred for five minutes at room temperature to dissolve the solids. Diisopropanolamine (185 mg, 1.39 mmol) is charged and stirred at room temperature. The white precipitate is collected by vacuum filtration, washed with 5 mL of ethyl acetate and dried overnight under nitrogen on the filter to give 410 mg (0.895 mmol, 64%) of the desired product with an HPLC purity of 99.4A %. […]

The nature of data set [3]: Storage stability in freezer / under ambient conditions. It counts as physicochemical. The text has this:
Compound 1 is obtained as a non-crystalline solid using the process set forth in US 2009/0325903. Compound 1 is obtained as a mixture of monomer and the trimer anhydride N,N′,N″-boroxin-2,4,6-triyltris {{(1R)-3-methylbutane-1,1-diyl]imino(2-oxoethane-2,1-diyl)]}tris(2,5-dichlorobenzamide) (H NMR analysis).
The citric acid ester of Compound 1 (4-(R,S)-(carboxymethyl)-2-((R)-1-(2-(2,5-dichlorobenzamido)acetamido)-3-methylbutyl)-6-oxo-1,3,2-dioxaborinane-4-carboxylic acid) is obtained as a crystalline solid (Form 1 or Form 2) using the process set forth in US 2009/0325903. The citric acid ester of Compound 1 is stable when stored in the freezer.

Setting [4] is: Compound 1 in blood, 0.3 mg/kg IV.
The mark [5] stands for this setting: Compound 1 in blood, 1 mg/kg IV.
Where [6] appears, read: Compound 1 in blood, 1 mg/kg PO.
The mark [7] stands for this setting: Compound 1 in blood, 3 mg/kg PO.
Where [8] appears, read: Compound 1 in plasma, 0.3 mg/kg IV.
The mark [9] stands for this setting: Compound 1 in plasma, 1 mg/kg IV.
The mark [10] stands for this setting: Compound 1 in plasma, 1 mg/kg PO.
[11] abbreviates: Compound 1 in plasma, 3 mg/kg PO.

Take “2,5-Dichloro-N—[(R)-1-[1,3,6,2]dioxazaborocan-2-yl-3-methyl-butylcarbamoyl)methyl]-benzamide [boronic ester of Formula X]”: in data set [1] (setting [4]), the AUC0-t was determined as 168 ± 46 ng·h/mL, the “AUC0-∞” value is 190 ± 45 ng·h/mL, the CL was determined as 30 ± 6 mL/min/kg and the Vd is 5.8 ± 1.9 L/kg. The same compound gave a t½ in data set [1] (setting [4]) of 2.2 ± 0.4 h. In data set [1] (setting [5]), the AUC0-t worked out at 509 ± 89 ng·h/mL, the “AUC0-∞” value worked out at 535 ± 100 ng·h/mL, the CL is given as 33 ± 6 mL/min/kg and the Vd came out at 3.9 ± 0.7 L/kg. In data set [1] (setting [5]), this compound returned a t½ of 1.4 ± 0.2 h. Moreover, in data set [1] (setting [6]), the AUC0-t was 166 ± 16 ng·h/mL, the “AUC0-∞” value worked out at 200 ± 17 ng·h/mL, the maximum concentration (Cmax) is reported as 92 ± 39 ng/mL and the “Oral Bioavailability” value came to 32 ± 1%. In addition, in data set [1] (setting [6]), the Tmax stood at 0.3 ± 0.1 h and the t½ worked out at 2.8 h. For the same compound, in data set [1] (setting [7]), the AUC0-t was 336 ± 69 ng·h/mL, the “AUC0-∞” value was 381 ± 78 ng·h/mL, the maximum concentration (Cmax) amounted to 205 ± 84 ng/mL and the “Oral Bioavailability” value is on record as 23 ± 4%. Moreover, in data set [1] (setting [7]), the time of peak concentration (Tmax) is listed as 0.8 ± 0.6 h and the t½ was 1.7 ± 0.2 h. For the same compound, in data set [1] (setting [8]), the AUC0-t was determined as 449 ± 256 ng·h/mL, the “AUC0-∞” value was 457 ± 254 ng·h/mL, the CL was 20 ± 9 mL/min/kg and the Vd is 0.9 ± 0.3 L/kg. In addition, the t½ in data set [1] (setting [8]) is listed as 0.6 ± 0.1 h. Further, in data set [1] (setting [9]), the AUC0-t is 1225 ± 42 ng·h/mL, the “AUC0-∞” value was 1240 ± 47 ng·h/mL, the CL is on record as 13 ± 1 mL/min/kg and the Vd is reported as 1.2 ± 0.1 L/kg. The compound further yielded a t½ in data set [1] (setting [9]) of 1.1 ± 0.1 h. Also, in data set [1] (setting [10]), the AUC0-t was 170 ± 16 ng·h/mL, the “AUC0-∞” value was 182 ± 17 ng·h/mL, the Cmax is 179 ± 39 ng/mL and the “Oral Bioavailability” value is on record as 12 ± 1%. Further, in data set [1] (setting [10]), the time of peak concentration (Tmax) is given as 0.3 ± 0.1 h. Besides, in data set [1] (setting [11]), the AUC0-t amounted to 990 ± 310 ng·h/mL, the “AUC0-∞” value was found to be 1029 ± 299 ng·h/mL, the Cmax is reported as 567 ± 185 ng/mL and the “Oral Bioavailability” value stood at 27 ± 8%. Moreover, in data set [1] (setting [11]), the Tmax turned out to be 0.5 ± 0.0 h and the t½ amounted to 1.1 ± 0.1 h. Further, the “oral bioavailability (conclusion in words)” value in data set [1] (conclusion from Tables 5-10) is listed as “orally bioavailable”. Besides, the “HPLC purity after storing for approximately one (1) year” value (“HPLC purity after storing” below) in data set [2] was 99.9 A %.

For `CC(C)C[C@H](NC(=O)CNC(=O)c1cc(Cl)ccc1Cl)B1OC(=O)CC(CC(=O)O)(C(=O)O)O1` (mixture of isomers) [citric acid ester of Compound 1, 4-(R,S)-(carboxymethyl)-2-((R)-1-(2-(2,5-dichlorobenzamido)acetamido)-3-methylbutyl)-6-oxo-1,3,2-dioxaborinane-4-carboxylic acid, reference compound], the storage stability entry in data set [3] (stored in the freezer) is recorded as “stable”.

As for `CC(C)C[C@H](NC(=O)CNC(=O)c1cc(Cl)ccc1Cl)B1OC(=O)CN(C)CC(=O)O1` [2,5-Dichloro-N—{[(R)-3-methyl-1-(6-methyl-4,8-dioxo-[1,3,6,2]dioxazaborocan-2-yl)-butylcarbamoyl]-methyl}benzamide], the “HPLC purity after storing” value in data set [2] is on record as 84.4 A %.

For `CC(C)C[C@H](NC(=O)CNC(=O)c1cc(Cl)ccc1Cl)B(O)O` [Compound 1, [(1R)-1-({[(2,5-dichlorobenzoyl)amino]acetyl}amino)-3-methylbutyl]boronic acid], the storage stability result is “not storage stable” in data set [3] (ambient conditions) and “stable” in data set [3] (stored in the freezer).

As for `CC(C)C[C@H](NC(=O)CNC(=O)c1cc(Cl)ccc1Cl)B1OC(C)CNCC(C)O1` (stereo partly drawn) [boronic ester of Formula IX, 2,5-Dichloro-N-{[(R)-1-(4,8-dimethyl-[1,3,6,2]dioxazaborocan-2-yl)-3-methyl-butylcarbamoyl]-methyl}benzamide], in data set [2], the “HPLC purity after storing” value came to 99.8 A %.
